tested on: HMG-CoA reductase; assay: HMG-CoA Reductase Inhibition Assay (in vitro, relative to compactin); format: biochemical; details: IC50 compared with compactin determined simultaneously, compactin assigned 100; tested as sodium salt of dihydroxy acid form; solubilized rat liver microsomal enzyme
Experimental: The intrinsic HMG-CoA reductase inhibition activity of the claimed compounds is measured in the in vitro protocol published in J. Med. Chem., 28, p. […] (1985) and described below: Male Holtzman Sprague-Dawley rats (225-250 g) were kept on reversed lighting and fed Purina rat chow containing 3% cholestyramine for 7 days preceding their sacrifice by CO2 asphyxiation. Livers were removed 6 hours into the dark cycle and used immediately to prepare microsomes. HMG-CoA reductase was solubilized from the freshly prepared microsomes by the method of Heller and Shrewsbury [J. Biol. Chem., 1976, 251, 3815]and purified through the second ammonium sulfate precipitation step as described by Kleinsek et al. [Proc. Natl. Acad. Sci. USA, 1977, 74, 1431]. […] The enzyme preparation was stored at -80° C. The assay is essentially the procedure of Shefer et al. [J. Lipid Res., 1972, 13, 402]. The complete assay medium contained the following in a total volume of 0.8 ml: phosphate buffer, pH 7.2, 100 mM; MgCl2, 3 mM; NADP, 3 mM; glucose-6-phosphate, 10 mM; glucose-6-phosphate dehydro-genase, 3 enzyme units; reduced glutathione 50 mM; HMG-CoA (glutaryl-3-^14 C, New England Nuclear), 0.2 mM (0.1 μCi); and partially purified enzyme stock solution, 100 μL. […] After a 40-minute incubation at 37° C. with shaking and exposure to air, the reaction was stopped by the addition of 0.4 mL of 8 N HCl. After an additional 30-minute incubation period at 37° C. to ensure the complete lactonization of mevalonic acid to mevalonolactone, 0.2 ml of the mixture was added to an 0.5×5.0 cm column containing 100-200 mesh Bio-Rex 5, chloride form (Bio-Rad), wetted with distilled water, as described by Alberts et al. [Proc. Natl. Acad. Sci. U.S.A., 1980, 77, 3967]. The unreacted [^14 C]HMG-CoA was absorbed on the resin and the [^14 C]mevalonolactone was eluted with distilled water (2×1 ml) directly into 7-ml scintillation vials. Five milliliters of Aquasol-2 (New England Nuclear) was added to each vial, and radioactivity was measured in a Packard Tri Carb Prias scintillation counter. IC50 values were determined by plotting percentage inhibition against test compound concentration and fitting a straight line to the resulting data by using the least-squares method.

Row | Structure (SMILES) | Relative Potency
1 | CCC(C)(C)C(=O)OC[C@H]1C[C@@H]2CC[C@H](C)[C@H](CC[C@@H](O)C[C@@H](O)CC(=O)O)[C@H]2[C@@H](OC(=O)C(C)(C)CC)C1 | 100
2 | CCC(C)(C)C(=O)O[C@H]1C[C@H](COC(=O)Nc2ccccc2)C=C2C=C[C@H](C)[C@H](CC[C@@H](O)C[C@@H](O)CC(=O)O)[C@H]21 | 726
3 | CCC(C)(C)C(=O)O[C@H]1C[C@@H](C(=O)N(C(=O)NC2CCCCC2)C2CCCCC2)C[C@@H]2CC[C@H](C)[C@H](CC[C@@H](O)C[C@@H](O)CC(=O)O)[C@H]21 | 100
4 | CCC(C)(C)C(=O)OC[C@H]1C=C2CC[C@H](C)[C@H](CC[C@@H](O)C[C@@H](O)CC(=O)O)[C@H]2[C@@H](OC(=O)C(C)(C)CC)C1 | 33
5 | CCC(C)(C)C(=O)O[C@H]1C[C@H](C(C)O)C[C@@H]2CC[C@H](C)[C@H](CC[C@@H](O)C[C@@H](O)CC(=O)O)[C@H]21 (single isomer, unassigned) [-- -- -- R CHOHCH3 (ISOMER A) 1,1-dimethylpropyl] | 111
6 | CCC(C)(C)C(=O)O[C@H]1C[C@H](C(C)O)C[C@@H]2CC[C@H](C)[C@H](CC[C@@H](O)C[C@@H](O)CC(=O)O)[C@H]21 (single isomer, unassigned) [-- -- -- R CHOHCH3 (ISOMER B) 1,1-dimethylpropyl] | 104
7 | CCC(C)(C)C(=O)O[C@H]1C[C@@H](C(C)O)C[C@@H]2CC[C@H](C)[C@H](CC[C@@H](O)C[C@@H](O)CC(=O)O)[C@H]21 (single isomer, unassigned) [-- -- -- S CHOHCH3 (ISOMER A) 1,1-dimethylpropyl] | 131
8 | CCC(C)(C)C(=O)O[C@H]1C[C@@H](C(C)O)C[C@@H]2CC[C@H](C)[C@H](CC[C@@H](O)C[C@@H](O)CC(=O)O)[C@H]21 (single isomer, unassigned) [-- -- -- S CHOHCH3 (ISOMER B) 1,1-dimethylpropyl] | 113
9 | CCC(C)(C)C(=O)O[C@H]1C[C@@H](C(O)c2ccccc2)C[C@@H]2CC[C@H](C)[C@H](CC[C@@H](O)C[C@@H](O)CC(=O)O)[C@H]21 (single isomer, unassigned) [-- -- -- S CHOHPH 1,1-dimethylpropyl] | 220
10 | CCC(C)(C)C(=O)O[C@H]1C[C@@H](CO)C[C@@H]2CC[C@H](C)[C@H](CC[C@@H](O)C[C@@H](O)CC(=O)O)[C@H]21 [-- -- -- S CH2 OH 1,1-dimethylpropyl] | 86
11 | C[C@H]1CC[C@H]2C[C@H](CO)C[C@H](OC(=O)C3CCCCC3)[C@@H]2[C@H]1CC[C@@H](O)C[C@@H](O)CC(=O)O [-- -- -- S CH2 OH cyclohexyl] | 33
12 | CCOC(=O)[C@H]1C[C@@H]2CC[C@H](C)[C@H](CC[C@@H](O)C[C@@H](O)CC(=O)O)[C@H]2[C@@H](OC(=O)C(C)(C)CC)C1 [-- -- -- S CO2 Et 1,1-dimethylpropyl] | 125
13 | CCC(C)(C)C(=O)O[C@H]1C[C@@H](C(=O)O)C[C@@H]2CC[C@H](C)[C@H](CC[C@@H](O)C[C@@H](O)CC(=O)O)[C@H]21 [-- -- -- S CO2 H 1,1-dimethylpropyl] | 79
14 | CCC(C)(C)C(=O)O[C@H]1C[C@@H](C(=O)OC(C)C)C[C@@H]2CC[C@H](C)[C@H](CC[C@@H](O)C[C@@H](O)CC(=O)O)[C@H]21 [-- -- -- S CO2 i-Pr 1,1-dimethylpropyl] | 80
15 | CCC(C)(C)C(=O)O[C@H]1C[C@@H](C(N)=O)C[C@@H]2CC[C@H](C)[C@H](CC[C@@H](O)C[C@@H](O)CC(=O)O)[C@H]21 [-- -- -- S CONH2 1,1-dimethylpropyl] | 107
16 | CCC(C)(C)C(=O)O[C@H]1C[C@@H](C(=O)N(C)C)C[C@@H]2CC[C@H](C)[C@H](CC[C@@H](O)C[C@@H](O)CC(=O)O)[C@H]21 [-- -- -- S CONMe2 1,1-dimethylpropyl] | 75
17 | CCC(C)(C)C(=O)O[C@H]1C[C@@H](CO)C=C2CC[C@H](C)[C@H](CC[C@@H](O)C[C@@H](O)CC(=O)O)[C@H]21 [db -- -- R CH2 OH 1,1-dimethylpropyl] | 213
18 | CCC(C)C(=O)O[C@H]1C[C@@H](CO)C=C2C=C[C@H](C)[C@H](CC[C@@H](O)C[C@@H](O)CC(=O)O)[C@H]21 (stereo partly shown) [db -- db R CH2 OH sec-butyl] | 47
19 | CCC(C)(C)C(=O)O[C@H]1C[C@@H](C(=O)O)C=C2C=C[C@H](C)[C@H](CC[C@@H](O)C[C@@H](O)CC(=O)O)[C@H]21 [db -- db R CO2 H 1,1-dimethylpropyl] | 94
20 | CCC(C)(C)C(=O)O[C@H]1C[C@H](CO)C=C2C=C[C@H](C)[C@H](CC[C@@H](O)C[C@@H](O)CC(=O)O)[C@H]21 [db -- db S CH2 OH 1,1-dimethylpropyl] | 189
21 | CCC(C)(C)C(=O)O[C@H]1C[C@H](C(=O)O)C=C2C=C[C@H](C)[C@H](CC[C@@H](O)C[C@@H](O)CC(=O)O)[C@H]21 [db -- db S CO2 H 1,1-dimethylpropyl] | 99
22 | CCC(C)C(=O)O[C@H]1C[C@H](C(=O)O)C=C2C=C[C@H](C)[C@H](CC[C@@H](O)C[C@@H](O)CC(=O)O)[C@H]21 (stereo partly shown) [db -- db S CO2 H sec-butyl] | 26
23 | CCN(CC)C(=O)[C@@H]1C=C2C=C[C@H](C)[C@H](CC[C@@H](O)C[C@@H](O)CC(=O)O)[C@H]2[C@@H](OC(=O)C(C)(C)CC)C1 [db -- db S CONEt2 1,1-dimethylpropyl] | 65
24 | CCC(C)(C)C(=O)O[C@H]1C[C@H](C(=O)N(C)C)C=C2C=C[C@H](C)[C@H](CC[C@@H](O)C[C@@H](O)CC(=O)O)[C@H]21 [db -- db S CONMe2 1,1-dimethylpropyl] | 82

tested on: not listed separately; assay: Standing of the free dihydroxy acid (reversion to lactone); format: physicochemical; details: free dihydroxy acid after isolation; can be maintained by increasing the pH above 7.0
Experimental: The sodium salt of the compound II from Example 64 is dissolved in 2 ml of ethanol-water (1:1; v:v) and added to 10 ml of 1N hydrochloric acid from which the dihydroxy acid is extracted with ethyl acetate. The organic extract is washed once with water, dried (Na2 SO4), and evaporated in vacuo with a bath temperature not exceeding 30° C. […] The dihydroxy acid can be maintained by increasing the pH above 7.0.

Row | Structure (SMILES) | stability of the dihydroxy acid on standing
25 | CCC(C)(C)C(=O)O[C@H]1C[C@@H](CO)C[C@@H]2CC[C@H](C)[C@H](CC[C@@H](O)C[C@@H](O)CC(=O)O)[C@H]21 [Example 70] | slowly reverts to the corresponding,parent lactone on standing

— USRE36481E, “HMG-CoA reductase inhibitors” (Merck & Co., Inc., priority 1998, dated 2000)
